Assay results reported in patent publication US20200009118A1, “COMPOSITIONS AND METHODS FOR THE TREATMENTOF NEURODEGENERATIVE AND OTHER DISEASES” (Glialogix, Inc., priority 2017, published 2020).

How the values were obtained:
[1] = system: SOD1^G93A transgenic mice; test: Survival study in the SOD1 mouse model of ALS; assay type: in vivo; settings: for Observed Days, Total Days: whole cohort
Procedure: High-copy SOD1^G93A transgenic mice were derived from the B6SJL-TgN(SOD1G93A)1Gur strain, obtained from The Jackson Laboratory (Bar Harbor, Me.) and originally produced by Gurney, e.g. Gurney et al., Science 264: 1772-1775 (1994). Animal experiments with the SOD1 model were performed at ALS Therapy Development Institute (herein “ALS-TDI”; Cambridge, Mass.). All mice were genotyped to verify copy number of the SOD1 transgene. Animal handling and study protocols were as previously described by ALS-TDI, e.g. Scott et al., Amyotroph. Lateral Scler. 9: 4-15 (2008).
Groups were balanced with respect to gender and body weight within gender. In addition, groups were age-matched and littermate-matched. […] Each cohort of was balanced between males and females.
5 mL of 0.1 N NaOH was added and the tube gently sonicated. Approximately 140 μL of 1 N HCl was then added to bring the pH to 8.00. The resulting 20 mg/mL solution was delivered by intraperitoneal injection at 10 ml/kg. Vehicle treated mice were administered saline.
Neurological scores were assessed daily from day 50 for both hind legs. The neurological score was based on a scale of 0 to 4. Criteria used to assign each score level are from Scott et al., Amyotroph. Lateral Scler. 9: 4-15 (2008) and are described in Table 2.
The date of definitive neurological disease was the day that the mouse first scored a “2” on the Neurological Score. Upon reaching a score of Neurological Score of “4”, mice were euthanized and the date of death was recorded.
Survival after onset of definitive neurological disease is defined as the total number of days the mice lived after reaching definitive neurological disease (Neurological Score of 2) and before death (Neurological Score of 4). Survival after onset of definitive neurological disease was analyzed in two ways.
The first day that a neurological score was determined was day 50 of age; measurements were collected daily afterwards until death.
The three categories were: (1) days spent before definitive neurological disease, e.g. with a neurological score of 0 or 1; (2) days spent during definitive neurological disease, e.g. with a neurological score of 2 or 3; and (3) days at death, e.g. with a neurological score of 4. By definition, mice were only in the dead state for 1 day, as they were euthanized upon reaching a neurological score of 4; this category was included as a positive control to ensure the integrity of the data and analysis.

[2] = system: 2D2-TCR MOG (2D2) mice; test: 2D2 mouse model of optic neuritis, myelin staining of the optic nerve; assay type: in vivo; settings: for Number of animals, average myelin content score Low / Number of animals, average myelin content score high / Number of animals, average myelin content score moderate: sulfasalazine 200 mg/kg or memantine 5 mg/kg IP BID
Excerpt: This model serves as an inducible model of optic neuritis with a high rate of penetrance. The development of optic neuritis was monitored by animal observation and histopathology.
Female 2D2 (strain C57BL/6-Tg(Tcra2D2,Tcrb2D2)1Kuch/J) and WT mice (C57BL/6) were purchased from The Jackson Laboratory. Each cohort size was 14 animals. Mice were delivered to Ophthy-DS (Kalamazoo, Mich.) under the supervision of Renovo Neural (Cleveland, Ohio) at 8-12 weeks of age and then acclimated for an additional 4 weeks before beginning the experiment. Animals were housed in pathogen-free, individually-ventilated, enriched cages on a 12 h:12 h light:dark cycle with food and water ad libitum. Mice were monitored daily for welfare and symptoms of optic neuritis.
After 4 weeks of acclimation, animals were randomized by weight into 4 groups of 14 animals each. To induce optic neuritis, 200 ng of Pertussis toxin was injected into the 2D2 animals on days 1 and 3 as described by Guan et al. Dosing of vehicle or treatment compounds began at day 1. The four cohorts are: • (1) WT mice (C57BL/6) treated with vehicle (200 μl saline IP, BID). This cohort serves as a control for the readouts of optic neuritis disease. • (2) 2D2 mice vehicle treated with vehicle (200 μl saline IP, BID). […] The memantine-treated group served as a control for anti-glutamatergic therapy in the 2D2 model of optic neuritis.
On day 30, animals were euthanized and perfused. Optic nerves and retinas were dissected out and embedded in paraffin and sections mounted on slides. 5-7 sections of the optic nerve (from one eye) from ten animals in each cohort were stained by Toluidine Blue. Histopathological analysis of the slides and quantitation of the myelin staining intensity was performed blinded by a board-certified pathologist, Dr. Igor Polyakov (Minneapolis, Minn.). Staining intensity of each slide was graded as either low, moderate or high. Both peripheral and central sections of the optic nerve were graded. The intensity of the myelin staining between the cohorts on a per section and a per animal basis was compared using chi-square and Fishers' exact test with a p<0.05 considered significant.
On a per animal basis, this yielded 20 scores per cohort: average score per section×2 scores per animal (peripheral or central)×10 animals per cohort. On a per section basis, this yielded approximately 110 score per cohort: score per section×5-7 sections per animal×2 scores per section (peripheral or central)×10 animals per cohort.

[3] = 200 mg/kg IP two times per day from age 50 days
[4] = Before definitive disease onset (neurological score = 0 or 1)
[5] = Definitive neurological disease (neurological score = 2 or 3)
[6] = Total (central + peripheral, 20 scores), day 30
[7] = per section basis, Central Region, day 30
[8] = per section basis, Peripheral Region, day 30
[9] = per section basis, Total, day 30

For `O=C(O)c1cc(/N=N/c2ccc(S(=O)(=O)Nc3ccccn3)cc2)ccc1O` [Sulfasalazine, 2-hydroxy-5-[(E)-2-{4-[(pyridin-2-yl)sulfamoyl]phenyl}diazen-1-yl]benzoic acid], the “Mean Day of Death” value ([1]; 200 mg/kg IP two times per day) was 132.6, the “Mean Day of Definitive Neurological Disease” value ([1]; 200 mg/kg IP two times per day) was 115.2 and the “Total Days of Survival after Onset of Definitive Disease” value ([1]; 200 mg/kg IP two times per day) was 17.4 days. For the same compound, the “increase in median absolute survival” value [1, 3] was 3.5 days, the increased absolute lifespan [1, 3] was 2.7% and the “time of disease onset” value [1, 3] was “no statistical effect”. For the same compound, the “increase in median absolute survival” value ([1]; 200 mg/kg IP two times per day from age 50 days, listed as sulfasalazine formulation) was 3.7 days, the “effect on absolute survival, greater than riluzole” value ([1]; 2.7% vs. […] increased absolute lifespan) was 68% and the “Observed Days Minus Expected Days” value [1, 4] was -14 days. The “Observed Days, Total Days” value [1, 4] was 1708 days, the “Observed Days Minus Expected Days” value ([1]; Death (neurological score = 4)) was 0 days and the “Observed Days, Total Days” value ([1]; Death (neurological score = 4)) was 27 days. The “Observed Days Minus Expected Days” value [1, 5] was 112 days, the “Observed Days, Total Days” value [1, 5] was 413 days and the “Observed Days Minus Expected Days” value ([1]; Total Observations (Days)) was 98 days. The “Observed Days, Total Days” value ([1]; Total Observations (Days)) was 2148 days, the “Mean Day of Death, Absolute Change” value ([1]; vs. vehicle) was 3.7 and the “Mean Day of Death, Percent Change” value ([1]; vs. vehicle) was 2.9%. The “Mean Day of Definitive Neurological Disease, Absolute Change” value ([1]; vs. vehicle) was −1.2, the “Mean Day of Definitive Neurological Disease, Percent Change” value ([1]; vs. vehicle) was −1.0% and the “Total Days of Survival after Onset of Definitive Disease, Absolute Change” value ([1]; vs. vehicle) was 4.9 days. The “Total Days of Survival after Onset of Definitive Disease, Percent Change” value ([1]; vs. vehicle) was 39.2%, the “Total Days of Survival after Onset of Definitive Disease, Percent Change” value ([1]; vs. vehicle, listed as Sulfasalazine formulation) was 39% and the “Number of animals, average myelin content score Low” value ([2]; Central Region, day 30) was 0. The “Number of animals, average myelin content score high” value ([2]; Central Region, day 30) was 4, the “Number of animals, average myelin content score moderate” value ([2]; Central Region, day 30) was 6 and the “Number of animals, average myelin content score Low” value ([2]; Peripheral Region, day 30) was 1. For the same compound, the “Number of animals, average myelin content score high” value ([2]; Peripheral Region, day 30) was 4, the “Number of animals, average myelin content score moderate” value ([2]; Peripheral Region, day 30) was 5 and the “Number of animal scores, myelin content High” value [2, 6] was 8. For the same compound, the “Number of animal scores, myelin content Low” value [2, 6] was 1, the “Number of animal scores, myelin content Moderate” value [2, 6] was 11 and the “myelin content compared to the vehicle-treated 2D2 animals” value ([2]; optic nerve, day 30) was “highly significant increase in myelin content”. The “Number of sections, myelin content Low” value [2, 7] was 0, the “Number of sections, myelin content high” value [2, 7] was 19 and the “Number of sections, myelin content moderate” value [2, 7] was 38. For the same compound, the “Number of sections, myelin content Low” value [2, 8] was 8, the “Number of sections, myelin content high” value [2, 8] was 21 and the “Number of sections, myelin content moderate” value [2, 8] was 28. The “Number of section scores, myelin content High” value [2, 9] was 40, the “Number of section scores, myelin content Low” value [2, 9] was 8 and the “Number of section scores, myelin content Moderate” value [2, 9] was 66. The “Percent scores, Myelin content-Total High” value ([2]; per-animal basis) was 40%, the “Percent scores, Myelin content-Total Low” value ([2]; per-animal basis) was 5% and the “Percent scores, Myelin content-Total Moderate” value ([2]; per-animal basis) was 55%. For the same compound, the “Percent scores, Myelin content-Total High” value ([2]; per-section basis) was 35%, the “Percent scores, Myelin content-Total Low” value ([2]; per-section basis) was 7% and the “Percent scores, Myelin content-Total Moderate” value ([2]; per-section basis) was 58%.
